According to patent US9402911B2, “Multifunctional small molecules” (The Regents of the University of Michigan, priority 2011, dated 2016):

Molecular target: Folate binding protein (FBP, bovine milk) (Bos taurus, UniProt P02702)
Assay: SPR binding to immobilized folate binding protein
Settings: read-out: equilibrium dissociation constant KD, FBP chip, free MTX
Description: SPR analysis was performed in a Biacore® X instrument (Pharmacia Biosensor AB, Uppsala, Sweden).
Folate binding protein (FBP)-presenting chip was prepared at the surface protein density of 11 ng/mm^2 (≈2-3 FBP per 10 nm^2) following an EDC-based amide coupling method as described previously (see, e.g., Hong, S.; et al., Chem. Biol. 2007, 14, 107-15; Plantinga, A.; et al., ACS Med. Chem. Lett. 2011, 2, 363-67; each herein incorporated by reference in their entireties).
In an approach to determine the equilibrium dissociation constants (KD) for G5-MTXn on a quantitative basis, the SPR data was analyzed by using the non-linear regression method as established for SPR analysis (see, e.g., Ober, R. J.; et al., Anal. Biochem. 2003, 312, 57-65; herein incorporated by reference in its entirety). This analytical method enabled the SPR data to be fit according to a linear combination of exponential functions, and to extract the estimates for their kinetic rate constants (kon, koff) and KD (FIG. 7).

Chain of Folate binding protein (FBP, bovine milk) (P02702 20-234): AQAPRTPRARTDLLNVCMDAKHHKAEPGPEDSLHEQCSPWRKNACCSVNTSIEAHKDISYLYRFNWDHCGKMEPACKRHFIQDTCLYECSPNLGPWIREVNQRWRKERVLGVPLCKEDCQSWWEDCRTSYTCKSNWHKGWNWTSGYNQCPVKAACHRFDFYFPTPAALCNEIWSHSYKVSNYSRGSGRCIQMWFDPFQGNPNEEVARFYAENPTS

- Kd: 24 µM
Compound: CN(Cc1cnc2nc(N)nc(N)c2n1)c1ccc(C(=O)N[C@@H](CCC(=O)O)C(=O)O)cc1 [MTX, methotrexate]
